# Experimental data taken from patent US6001812A, “Modulating body/cranial hair growth with derivatives of the α-type melanocyte-stimulating hormone” (Societe L'Oreal S.A., priority 1995, dated 1999).
# Where a SMILES comes first, the peptide text is derived from it.
# System: hair follicles
# Experiment: Lengthening and survival of hair follicles maintained in vitro
# Type: cell-based
# Parameters: Mean lengthening: unit not given here
# Procedure: Viable in vitro hair follicles were prepared according to the technique described in French Patent Application No. 95-08465, filed Jul. 12, 1995 and assigned to the assignee hereof.
# From a scalp biopsy, a rather fine strip of scalp was isolated using a scalpel. The adipose tissue surrounding the follicles was removed with microforceps while avoiding damage to the hair bulb. The follicles were cut out with a scalpel under a microscope in order to separate them from their epidermal and dermal surroundings.
# The follicles were then cultured in the wells of Costar-type 24-well plates, at the rate of one follicle per well. Each well contained 0.5 ml of Williams' medium E, to which had been added penicillin and streptomycin to a final concentration of 50 IU/ml, glutamine to 2 mM, bovine insulin to 0.01 mg/ml and hydrocortisone to 0.04 mg/ml.
# The follicles were then measured using a microscope equipped with a micrometric eyepiece.
# After 24 hours, the follicles were again measured and those which had lengthened by less than 0.3 divisions of the micrometer, corresponding to 0.16 mm, were discarded.
# The five (5) following culturing conditions were tested:
# Condition A: Complete Williams' medium E, without peptide.
# Condition B: Complete Williams' medium E+10 mM Ac-LPV-NH2.
# Condition C: Complete Williams' medium E+1 mM Ac-LPV-NH2.
# Condition D: Complete Williams' medium E+0.1 mM Ac-LPV-NH2.
# [1] = 0.1 mM peptide in complete Williams' medium E, day 0
# [2] = 0.1 mM peptide in complete Williams' medium E, day 1
# [3] = 0.1 mM peptide in complete Williams' medium E, day 4
# [4] = 1 mM peptide in complete Williams' medium E, day 0
# [5] = 1 mM peptide in complete Williams' medium E, day 1
# [6] = 1 mM peptide in complete Williams' medium E, day 11
# [7] = 10 mM peptide in complete Williams' medium E, day 0
# [8] = 10 mM peptide in complete Williams' medium E, day 1
# [9] = 10 mM peptide in complete Williams' medium E, day 12
# [10] = summary of Example 1, versus medium without peptide
smiles,measurement,setting,value
CC(=O)N[C@@H](CCCCN)C(=O)N1CCC[C@H]1C(=O)N[C@H](C(N)=O)C(C)C [Acetyl-Lys-Pro-Val-NH2] (Ac-Lys-Pro-Val-NH2),% Survival,[1],100%
same,Mean lengthening,[1],0.00
same,% Survival,[2],100%
same,Mean lengthening,[2],0.37
same,% Survival,[3],100%
same,Mean lengthening,[3],1.10
same,% Survival,"0.1 mM peptide in complete Williams' medium E, day 5",100%
same,% Survival,"0.1 mM peptide in complete Williams' medium E, day 6",100%
same,% Survival,"0.1 mM peptide in complete Williams' medium E, day 7",83%
same,% Survival,"0.1 mM peptide in complete Williams' medium E, day 8",50%
same,% Survival,"0.1 mM peptide in complete Williams' medium E, day 11",42%
same,% Survival,"0.1 mM peptide in complete Williams' medium E, day 12",17%
same,% Survival,[4],100%
same,Mean lengthening,[4],0.00
same,% Survival,[5],100%
same,Mean lengthening,[5],0.38
same,% Survival,"1 mM peptide in complete Williams' medium E, day 4",100%
same,% Survival,"1 mM peptide in complete Williams' medium E, day 5",100%
same,% Survival,"1 mM peptide in complete Williams' medium E, day 6",100%
same,% Survival,"1 mM peptide in complete Williams' medium E, day 7",91%
same,% Survival,"1 mM peptide in complete Williams' medium E, day 8",55%
same,% Survival,[6],36%
same,Mean lengthening,[6],1.70
same,% Survival,[7],100%
same,Mean lengthening,[7],0.00
same,% Survival,[8],100%
same,Mean lengthening,[8],0.38
same,% Survival,"10 mM peptide in complete Williams' medium E, day 4",100%
same,% Survival,"10 mM peptide in complete Williams' medium E, day 5",100%
same,% Survival,"10 mM peptide in complete Williams' medium E, day 6",100%
same,% Survival,"10 mM peptide in complete Williams' medium E, day 7",100%
same,% Survival,"10 mM peptide in complete Williams' medium E, day 8",92%
same,% Survival,"10 mM peptide in complete Williams' medium E, day 11",83%
same,% Survival,[9],42%
same,Mean lengthening,[9],2.40
same,Effect on lengthening of the cultured hair follicles (in words),[10],promoted the lengthening
same,Effect on survival time of the cultured hair follicles (in words),[10],increased their survival time
